Test results from patent US20250179103A1, “6-OXODECAHYDROPYRROLO[1,2-A][1,5]DIAZOCINE AND 6-OXODECAHYDRO-4H-PYRROLO[2,1-D][1,5]THIAZOCINE DERIVATIVES AS STAT3 AND STAT6 MODULATORS FOR THE TREATMENT OF CANCER AND INFLAMMATORY CONDITIONS” (Recludix Pharma, Inc., priority 2022, published 2025).

Experiments:
[1] = target: T1, Recombinant STAT6 protein (STAT6(W123-T658)) (Homo sapiens, UniProt P42226); experiment: STAT6 Fluorescence Polarization (FP) Assay; type: binding; conditions: STAT6(W123-T658) 250 nM, probe 5-FAM-ApYKPFQDLI-NH2 2 nM, 45-minute incubation
T1 construct: Recombinant STAT6 protein (STAT6(W123-T658))
T1 sequence (P42226 123-658): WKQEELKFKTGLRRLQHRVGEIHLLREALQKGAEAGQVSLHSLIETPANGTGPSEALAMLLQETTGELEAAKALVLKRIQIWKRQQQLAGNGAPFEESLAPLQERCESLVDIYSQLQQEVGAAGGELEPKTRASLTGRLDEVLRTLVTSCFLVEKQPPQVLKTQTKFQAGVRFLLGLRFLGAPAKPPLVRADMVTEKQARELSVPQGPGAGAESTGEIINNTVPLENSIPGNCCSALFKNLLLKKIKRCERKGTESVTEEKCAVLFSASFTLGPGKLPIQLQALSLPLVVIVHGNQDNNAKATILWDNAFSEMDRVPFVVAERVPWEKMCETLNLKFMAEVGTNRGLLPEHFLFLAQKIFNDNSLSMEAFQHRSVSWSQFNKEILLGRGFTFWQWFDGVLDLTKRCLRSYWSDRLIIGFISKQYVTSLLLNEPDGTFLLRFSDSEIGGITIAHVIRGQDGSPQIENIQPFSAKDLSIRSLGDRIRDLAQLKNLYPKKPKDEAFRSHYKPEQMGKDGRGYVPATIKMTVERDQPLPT
Summary of the method: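 Displacement of a fluorescent phosphotyrosine peptide (5-FAM-ApYKPFQDLI-NH2, 2 nM) from STAT6(W123-T658) (250 nM), 1% DMSO, pH 7.4 HEPES buffer. After 45 min at room temperature, polarization (mP) was plotted versus log compound concentration and fitted by nonlinear regression to give IC50.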

[2] = target: T2, Recombinant STAT3 protein (STAT3(G127-I722)) (Homo sapiens, UniProt P40763); experiment: STAT3 Fluorescence Polarization (FP) Assay; type: binding; conditions: STAT3(G127-I722) 25 nM, probe 5-FAM-GpYLPQTV-NH2 2 nM, 45-minute incubation
T2 construct: Recombinant STAT3 protein (STAT3(G127-I722))
Summary of the method: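 STAT3(G127-I722), 25 nM, was mixed with 2 nM 5-FAM-GpYLPQTV-NH2 probe in HEPES pH 7.4 buffer with 1% DMSO and serially diluted compound. FP (mP) was read after 45 min at room temperature. IC50 came from nonlinear regression.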

T2 sequence (P40763 127-722): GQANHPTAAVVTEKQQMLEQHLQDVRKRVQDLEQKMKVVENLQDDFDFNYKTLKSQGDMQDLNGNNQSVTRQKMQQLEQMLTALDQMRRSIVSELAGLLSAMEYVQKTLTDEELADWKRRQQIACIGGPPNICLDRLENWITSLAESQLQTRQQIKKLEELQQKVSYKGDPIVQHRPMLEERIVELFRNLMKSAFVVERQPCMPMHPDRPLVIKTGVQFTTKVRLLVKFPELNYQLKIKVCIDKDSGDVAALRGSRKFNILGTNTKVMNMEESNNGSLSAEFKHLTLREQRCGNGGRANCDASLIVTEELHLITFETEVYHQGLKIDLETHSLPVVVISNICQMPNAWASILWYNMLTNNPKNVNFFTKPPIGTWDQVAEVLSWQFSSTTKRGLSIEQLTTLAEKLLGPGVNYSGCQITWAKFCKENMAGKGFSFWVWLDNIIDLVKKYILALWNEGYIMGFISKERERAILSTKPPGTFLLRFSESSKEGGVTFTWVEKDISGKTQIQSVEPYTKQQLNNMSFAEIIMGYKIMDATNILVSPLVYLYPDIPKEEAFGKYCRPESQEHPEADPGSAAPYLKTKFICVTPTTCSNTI

SMILES	IC50 [1]	IC50 [2]
CC(=O)N1CC[C@H]2CC[C@@H](C(=O)N(C)CC(C)C#N)N2C(=O)[C@@H](NC(=O)c2cc3cc(C(F)(F)P(=O)(O)O)ccc3s2)C1 (stereo partly drawn) [Compound 89, ((2-(((5S,8S,10aR)-3-acetyl-8-((2-cyanopropyl)(methyl)carbamoyl)-6-oxodecahydropyrrolo[1,2-a][1,5]diazocin-5-yl)carbamoyl)benzo[b]thiophen-5-yl)difluoromethyl)phosphonic acid]	300 to 3000 nM	1000 to 10000 nM
CC(=O)N1CC[C@H]2CC[C@@H](C(=O)N(C)CCC#N)N2C(=O)[C@@H](NC(=O)c2cc3cc(C(F)(F)P(=O)(O)O)ccc3s2)C1 [Compound 90, ((2-(((5S,8S,10aR)-3-acetyl-8-((2-cyanoethyl)(methyl)carbamoyl)-6-oxodecahydropyrrolo[1,2-a][1,5]diazocin-5-yl)carbamoyl)benzo[b]thiophen-5-yl)difluoromethyl)phosphonic acid]	300 to 3000 nM	1000 to 10000 nM
CC(=O)N1CC[C@H]2CC[C@@H](C(=O)N(C)CC(C)(C)O)N2C(=O)[C@@H](NC(=O)c2cc3cc(C(F)(F)P(=O)(O)O)ccc3s2)C1 [Compound 91, ((2-(((5S,8S,10aR)-3-acetyl-8-((2-hydroxy-2-methylpropyl)(methyl)carbamoyl)-6-oxodecahydropyrrolo[1,2-a][1,5]diazocin-5-yl)carbamoyl)benzo[b]thiophen-5-yl)difluoromethyl)phosphonic acid]	300 to 3000 nM	1000 to 10000 nM
CC(=O)N1CC[C@H]2CC[C@@H](C(=O)N(C)C3CCN(S(C)(=O)=O)CC3)N2C(=O)[C@@H](NC(=O)c2cc3cc(C(F)(F)P(=O)(O)O)ccc3s2)C1 [Compound 93, ((2-(((5S,8S,10aR)-3-acetyl-8-(methyl(1-(methylsulfonyl)piperidin-4-yl)carbamoyl)-6-oxodecahydropyrrolo[1,2-a][1,5]diazocin-5-yl)carbamoyl)benzo[b]thiophen-5-yl)difluoromethyl)phosphonic acid]	300 to 3000 nM	1000 to 10000 nM
CC(=O)N1CC[C@H]2CC[C@@H](C(=O)Nc3cnc(S(C)(=O)=O)nc3)N2C(=O)[C@@H](NC(=O)c2cc3cc(C(F)(F)P(=O)(O)O)ccc3s2)C1 [Compound 94, ((2-(((5S,8S,10aR)-3-acetyl-8-((2-(methylsulfonyl)pyrimidin-5-yl)carbamoyl)-6-oxodecahydropyrrolo[1,2-a][1,5]diazocin-5-yl)carbamoyl)benzo[b]thiophen-5-yl)difluoromethyl)phosphonic acid]	300 to 3000 nM	1000 to 10000 nM
CC(=O)N1CC[C@H]2CC[C@@H](C(=O)N3CCC(Oc4ccncc4)C3)N2C(=O)[C@@H](NC(=O)c2cc3cc(C(F)(F)P(=O)(O)O)ccc3s2)C1 (stereo partly drawn) [Compound 95, ((1-(((5S,8S,10aR)-3-acetyl-6-oxo-8-(3-(pyridin-4-yloxy)pyrrolidine-1-carbonyl)decahydropyrrolo[1,2-a][1,5]diazocin-5-yl)carbamoyl)benzo[b]thiophen-5-yl)difluoromethyl)phosphonic acid]	300 to 3000 nM	100 to 1000 nM
CC(=O)N1CC[C@H]2CC[C@@H](C(=O)N(C)c3ccc(-c4ccccc4)cc3)N2C(=O)[C@@H](NC(=O)c2cc3cc(C(F)(F)P(=O)(O)O)ccc3s2)C1 [Compound 96, ((2-(((5S,8S,10aR)-8-([1,1′-biphenyl]-4-yl(methyl)carbamoyl)-3-acetyl-6-oxodecahydropyrrolo[1,2-a][1,5]diazocin-5-yl)carbamoyl)benzo[b]thiophen-5-yl)difluoromethyl)phosphonic acid]	≤ 300 nM	1000 to 10000 nM
CC(=O)N1CC[C@H]2CC[C@@H](C(=O)N3CC(Oc4ccccc4)C3)N2C(=O)[C@@H](NC(=O)c2cc3cc(C(F)(F)P(=O)(O)O)ccc3[nH]2)C1 [Compound 99, ((2-(((5S,8S,10aR)-3-acetyl-6-oxo-8-(3-phenoxyazetidine-1-carbonyl)decahydropyrrolo[1,2-a][1,5]diazocin-5-yl)carbamoyl)-1H-indol-5-yl)difluoromethyl)phosphonic acid]	300 to 3000 nM	100 to 1000 nM
CC(=O)N1CC[C@H]2CC[C@@H](C(=O)N3CC(c4ccccc4)C3)N2C(=O)[C@@H](NC(=O)c2cc3cc(C(F)(F)P(=O)(O)O)ccc3[nH]2)C1 [Compound 100, ((2-(((5S,8S,10aR)-3-acetyl-6-oxo-8-(3-phenylazetidine-1-carbonyl)decahydropyrrolo[1,2-a][1,5]diazocin-5-yl)carbamoyl)-1H-indol-5-yl)difluoromethyl)phosphonic acid]	300 to 3000 nM	100 to 1000 nM
CCOc1ccc(N(C)C(=O)[C@@H]2CC[C@@H]3CCN(C(C)=O)C[C@H](NC(=O)c4cc5cc(C(F)(F)P(=O)(O)O)ccc5[nH]4)C(=O)N32)cc1 [Compound 101, ((2-(((5S,8S,10aR)-3-acetyl-8-((4-ethoxyphenyl)(methyl)carbamoyl)-6-oxodecahydropyrrolo[1,2-a][1,5]diazocin-5-yl)carbamoyl)-1H-indol-5-yl)difluoromethyl)phosphonic acid]	300 to 3000 nM	1000 to 10000 nM

The next lines start with the values.

IC50 [1]	IC50 [2]	SMILES
300 to 3000 nM	≤ 100 nM	CC(=O)N1CC[C@H]2CC[C@@H](C(=O)N3CC(C#N)(c4ccccn4)C3)N2C(=O)[C@@H](NC(=O)c2cc3cc(C(F)(F)P(=O)(O)O)ccc3s2)C1 [Compound 88, ((2-(((5S,8S,10aR)-3-acetyl-8-(3-cyano-3-(pyridin-2-yl)azetidine-1-carbonyl)-6-oxodecahydropyrrolo[1,2-a][1,5]diazocin-5-yl)carbamoyl)benzo[b]thiophen-5-yl)difluoromethyl)phosphonic acid]
300 to 3000 nM	1000 to 10000 nM	CC(=O)N1CC[C@H]2CC[C@@H](C(=O)N(C)CC(C)(C)C#N)N2C(=O)[C@@H](NC(=O)c2cc3cc(C(F)(F)P(=O)(O)O)ccc3s2)C1 [Compound 92, ((2-(((5S,8S,10aR)-3-acetyl-8-((2-cyano-2-methylpropyl)(methyl)carbamoyl)-6-oxodecahydropyrrolo[1,2-a][1,5]diazocin-5-yl)carbamoyl)benzo[b]thiophen-5-yl)difluoromethyl)phosphonic acid]
≤ 300 nM	100 to 1000 nM	CC(=O)N1CC[C@H]2CC[C@@H](C(=O)N3CC[C@@H](c4ccccc4)C3)N2C(=O)[C@@H](NC(=O)c2cc3cc(C(F)(F)P(=O)(O)O)ccc3s2)C1 [Compound 97, ((2-(((5S,8S,10aR)-3-acetyl-6-oxo-8-((S)-3-phenylpyrrolidine-1-carbonyl)decahydropyrrolo[1,2-a][1,5]diazocin-5-yl)carbamoyl)benzo[b]thiophen-5-yl)difluoromethyl)phosphonic acid]
300 to 3000 nM	1000 to 10000 nM	CC(=O)N1CC[C@H]2CC[C@@H](C(=O)N(C)c3ccc(OCCN(C)C)cc3)N2C(=O)[C@@H](NC(=O)c2cc3cc(C(F)(F)P(=O)(O)O)ccc3[nH]2)C1 [Compound 102, ((2-(((5S,8S,10aR)-3-acetyl-8-((4-(2-(dimethylamino)ethoxy)phenyl)(methyl)carbamoyl)-6-oxodecahydropyrrolo[1,2-a][1,5]diazocin-5-yl)carbamoyl)-1H-indol-5-yl)difluoromethyl)phosphonic acid]
